Assay results reported in patent US10799496B2, “Naphthylenyl compounds for long-acting injectable compositions and related methods” (priority 2018, dated 2020).

Assay: Whole blood stability assay
Type: in vitro ADME
Conditions: prodrug 50 nM, fresh pooled human whole blood, 37 degrees C.; read-out: t1/2 at 37 degrees C. in human whole blood
Experimental: Naltrexone prodrug stability was assessed using freshly collected whole blood (within 24-hr collection) from pooled human (n=3) donors. The incubation mixtures were prepared by spiking the prodrugs into pre-warmed (37 degrees C.) fresh whole blood to a final concentration of 50 nM. After gentle mixing, aliquots of incubation mixtures were immediately transferred into four different 96-deep well plates. One plate was used for each time point. The plates were incubated at 37 degrees C. at a shaking speed of 100 rpm. At time points 15, 30, 60 and 120 minutes, the reaction was quenched by addition of a mixture of water and acetonitrile containing the internal standard (naltrexone-D3). Time point 0 minutes was prepared separately by spiking the prodrugs into a quenched whole blood to obtain a final concentration of 50 nM. All samples were vortexed at a low speed for 15 min and centrifuged at 3900 rpm for 15 min. Supernatants were transferred into 96-well plates for LC-MS/MS analysis to monitor the depletion of the prodrugs and the formation of naltrexone.
The amount of remaining prodrug and released naltrexone for each sample was quantitated against the calibration curves prepared with the whole blood. The human whole blood was purchased from BioreclamationIVT (Westbury, N.Y., USA). Naltrexone-D3 was purchased from CERILLIANT® (Round Rock, Tex., USA). […] Where multiple runs have been completed, average values are reported.

Going from `Cc1c(CC(=O)Oc2ccc3c4c2O[C@H]2C(=O)CC[C@@]5(O)[C@@H](C3)N(CC3CC3)CC[C@]425)ccc2c(C)c(CC(=O)Oc3ccc4c5c3O[C@H]3C(=O)CC[C@@]6(O)[C@@H](C4)N(CC4CC4)CC[C@]536)ccc12` [Compound 7, bis((4R,4aS,7aR,12bS)-3-(cyclopropylmethyl)-4a-hydroxy-7-oxo-2,3,4,4a,5,6,7,7a-octahydro-1H-4,12-methanobenzofuro[3,2-e]isoquinolin-9-yl) 2,2′-(1,5-dimethylnaphthalene-2,6-diyl)diacetate] to `O=C(Cc1ccc2c(F)c(CC(=O)Oc3ccc4c5c3O[C@H]3C(=O)CC[C@@]6(O)[C@@H](C4)N(CC4CC4)CC[C@]536)ccc2c1F)Oc1ccc2c3c1O[C@H]1C(=O)CC[C@@]4(O)[C@@H](C2)N(CC2CC2)CC[C@]314` [Compound 5, bis((4R,4aS,7aR,12bS)-3-(cyclopropylmethyl)-4a-hydroxy-7-oxo-2,3,4,4a,5,6,7,7a-octahydro-1H-4,12-methanobenzofuro[3,2-e]isoquinolin-9-yl) 2,2′-(1,5-difluoronaphthalene-2,6-diyl)diacetate], the half-life at 50 nM falls from 58.6 min to 20.4 min (2.9-fold).

`O=C(Oc1ccc2c3c1O[C@H]1C(=O)CC[C@@]4(O)[C@@H](C2)N(CC2CC2)CC[C@]314)c1ccc(C(=O)Oc2ccc3c4c2O[C@H]2C(=O)CC[C@@]5(O)[C@@H](C3)N(CC3CC3)CC[C@]425)cc1` [Reference Compound A, NTX-3-terephthaloyl-NTX, reference compound] and `O=C(Cc1cccc2cccc(CC(=O)Oc3ccc4c5c3O[C@H]3C(=O)CC[C@@]6(O)[C@@H](C4)N(CC4CC4)CC[C@]536)c12)Oc1ccc2c3c1O[C@H]1C(=O)CC[C@@]4(O)[C@@H](C2)N(CC2CC2)CC[C@]314` [Compound 9, bis((4R,4aS,7aR,12bS)-3-(cyclopropylmethyl)-4a-hydroxy-7-oxo-2,3,4,4a,5,6,7,7a-octahydro-1H-4,12-methanobenzofuro[3,2-e]isoquinolin-9-yl) 2,2′-(naphthalene-1,8-diyl)diacetate] are within 1.5-fold of each other in half-life at 50 nM: 54.7 min for the first, 40.9 min for the second.

First: COc1c(CC(=O)Oc2ccc3c4c2O[C@H]2C(=O)CC[C@@]5(O)[C@@H](C3)N(CC3CC3)CC[C@]425)ccc2c(OC)c(CC(=O)Oc3ccc4c5c3O[C@H]3C(=O)CC[C@@]6(O)[C@@H](C4)N(CC4CC4)CC[C@]536)ccc12 [Compound 4, bis((4R,4aS,7aR,12bS)-3-(cyclopropylmethyl)-4a-hydroxy-7-oxo-2,3,4,4a,5,6,7,7a-octahydro-1H-4,12-methanobenzofuro[3,2-e]isoquinolin-9-yl) 2,2′-(1,5-dimethoxynaphthalene-2,6-diyl)diacetate]
Second: CC(=O)Oc1c(CC(=O)Oc2ccc3c4c2O[C@H]2C(=O)CC[C@@]5(O)[C@@H](C3)N(CC3CC3)CC[C@]425)ccc2c(OC(C)=O)c(CC(=O)Oc3ccc4c5c3O[C@H]3C(=O)CC[C@@]6(O)[C@@H](C4)N(CC4CC4)CC[C@]536)ccc12 [Compound 3, bis((4R,4aS,7aR,12bS)-3-(cyclopropylmethyl)-4a-hydroxy-7-oxo-2,3,4,4a,5,6,7,7a-octahydro-1H-4,12-methanobenzofuro[3,2-e]isoquinolin-9-yl) 2,2′-(1,5-diacetoxynaphthalene-2,6-diyl)diacetate]
The half-life at 50 nM of the first is 2-fold higher: 28.9 min for the first, 14.8 min for the second.
